Measured values from patent US20100105749A1, “CHEMICAL COMPOUNDS, PHARMACEUTICAL COMPOSITIONS AND METHODS” (SMITHKLINE BEECHAM CORPORATION, priority 2007, published 2010).

Test system: Cynomolgus monkeys
Experiment: Bilirubin Monkey Test
Assay type: in vivo
Procedure: The product of Example 4 was formulated in 5% DMSO: 2% Tween 80: 10% SBE-CD with 1 molar equiv of HCl at 6 mg/ml and dosed at 30 mg/kg. Cynomolgus monkeys (each group n=6) had baseline blood drawn at day 0 at 9 am. On day 1, the monkeys were fed their morning meal at 7 am. After 1 hour, all left over food was removed and fast was begun. There was twice a day oral dosing of compound or vehicle on day 1 and day 2 of the fast, on day 3 there was an oral dose the morning (8 am) before the blood draw (9 am). Food was returned to the monkeys at this point. Oral dosing occurred at approximately 8:00 a.m. and 4:00 p.m. administered by oral gavage. Serum chemistries were screened on baseline and end of treatment blood draws. Significant changes were detected in bilirubin levels. Bilirubin increased in the fasted state, as expected (total, direct, and indirect bilirubin changed 2.0-, 2.4- and 1.92-fold, respectively over baseline).

[1] = fasted cynomolgus monkeys, 30 mg/kg oral gavage twice a day, end of treatment (day 3) vs baseline
[2] = serum, 48 hr fast, 30 mg/kg oral twice a day, n=6

Compound: O=C(O)c1ccc2nc(NC(c3ccccc3)c3ccccc3)n(CCc3ccccc3)c2c1.O=S(=O)(O)O [Example 4, 2-[(diphenylmethyl)amino]-1-(2-phenylethyl)-1H-benzimidazole-6-carboxylic acid sulfate]
- direct bilirubin change over baseline [1]: 4.71 fold
- indirect bilirubin change over baseline [1]: 3.53 fold
- total bilirubin change over baseline [1]: 3.74 fold
- DBIL (direct bilirubin) [2]: 0.165 ± 0.01 mg/dL
- IBIL (indirect bilirubin) [2]: 0.565 ± .036 mg/dL
- TBIL (total bilirubin) [2]: 0.73 ± 0.04 mg/dL
